Experimental data published in US20060224077A1, “Analysis of a skin reactivity and hypersensitivity” (priority 2002, published 2006).

Test system: maxillary nerve (V2, sensory)
Experiment: Action potential of the maxillary nerve in response to electrical stimulation at face level, recorded non-invasively in vivo
Parameters: species or system human
Conditions: cream containing 0.75% capsaicin, 2 mg/cm^2 on a 2×4 mm skin zone immediately above the upper lip; 5 minutes after application; versus before application
Excerpt: The process according to the invention which uses the electrogenesis of the nerves and/or the brain is characterized in that: • two non-invasive electrodes (1,1′) are applied, at least one of the two electrodes being applied to a specific point of the zone of the skin to be analyzed, the measuring point, in order to detect the electrical activity of the nerves of the skin and/or the subcutaneous nerves at that point or even the electrical activity of the brain. These electrodes are associated with a circuit for evaluating the signals detected by the electrodes, this evaluation circuit comprising amplifying elements (2, 2′, 3), processing elements (7) and recording elements for the signals and also a microprocessor (8), • the skin zone to be analyzed is exposed to a stimulation, more particularly an electrical stimulation, and • the changes in the electrical signals detected by the electrodes driven by the stimulation as a function of time are analyzed over a certain period. […]
FIG. 8 compares the variations in the action potential of the maxillary nerve (V2, sensory) in response to an electrical stimulation at face level before and immediately after the topical application of xylocaine (5%). […] A cream containing 0.75% capsaicin was used for this purpose and was applied in a quantity of 2 mg/cm^2 to a 2×4 mm skin zone immediately above the upper lip. […]

## COc1cc(CNC(=O)CCCC/C=C/C(C)C)ccc1O [capsaicin]
  increase of the amplitude of the nerve potential after application: 75%
